Test results reported in PMC5750217 (Nature Communications, 2018).

Columns and labels:
ASCT1 = target: T1, ASCT1 (Homo sapiens, UniProt P43007); assay: Two electrode voltage clamp, substrate-activated anion current in oocytes expressing ASCT1; type: cell-based
T1 construct: expressed in transfected cells; host or cells: Xenopus laevis oocytes (cRNA injection)
T1 sequence (P43007 1-532): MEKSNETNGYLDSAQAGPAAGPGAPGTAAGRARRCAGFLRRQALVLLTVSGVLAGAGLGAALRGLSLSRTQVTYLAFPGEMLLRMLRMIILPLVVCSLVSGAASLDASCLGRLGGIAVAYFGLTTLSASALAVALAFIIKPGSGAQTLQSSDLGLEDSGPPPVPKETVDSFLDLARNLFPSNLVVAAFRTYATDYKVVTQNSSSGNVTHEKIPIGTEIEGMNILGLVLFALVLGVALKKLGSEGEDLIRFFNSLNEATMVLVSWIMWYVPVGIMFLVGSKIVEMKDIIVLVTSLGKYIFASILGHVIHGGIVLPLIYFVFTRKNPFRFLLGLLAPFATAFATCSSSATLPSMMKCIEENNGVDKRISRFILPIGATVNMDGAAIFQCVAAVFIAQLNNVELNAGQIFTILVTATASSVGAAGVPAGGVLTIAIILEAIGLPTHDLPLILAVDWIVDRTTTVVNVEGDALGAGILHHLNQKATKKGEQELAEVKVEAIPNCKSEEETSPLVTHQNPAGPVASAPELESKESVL
Procedure: All chemicals were obtained from Sigma unless otherwise stated. Stage V oocytes were harvested from female Xenopus laevis (frogs) which were obtained from Nasco (Fort Alkinson, USA). Frogs were anaesthetised with 6.5 mM tricaine neutralised with 7.14 mM sodium bicarbonate. After making an incision in the abdomen of the frog, ovarian sacs were removed and stored in OR-2 buffer (82.5 mM NaCl, 2 mM KCl, 1 mM MgCl2, 5 mM hemisodium HEPES, pH 7.5). This surgical procedure follows a protocol (#2016/970) approved by the University of Sydney Animal Ethics Committee under the Australian Code of Practice for the Care and Use of Animals for Scientific Purposes. […]
After 2–4 days of microinjection, current recordings were made using the two electrode voltage clamp technique with a Geneclamp 500 amplifier (Axon Instruments, Foster City, CA) interfaced with a MacLab 2e chart recorder (ADI Instruments, Sydney, Australia) using the chart software, and a Digidata 1322A (Axon Instruments) controlled by an IBM-compatible computer using the pClamp software (version 10, Molecular Devices, Union City, CA). […] Current–voltage relationships were calculated by subtracting steady state current measurements in the absence of substrate from corresponding current measurements in the presence of substrate. […]

[1] = target: T2, A2-S481T/C482T (mutant ASCT2) (Homo sapiens, UniProt Q15758, C467T/S466T); assay: Radiolabelled uptake in oocytes expressing A2-S481T/C482T; type: cell-based; conditions: 10 µM L-[3H]substrate, 10 min, room temperature
T2 construct: expressed in transfected cells; host or cells: Xenopus laevis oocytes (cRNA injection)
T2 sequence (Q15758 1-541 S466T/C467T): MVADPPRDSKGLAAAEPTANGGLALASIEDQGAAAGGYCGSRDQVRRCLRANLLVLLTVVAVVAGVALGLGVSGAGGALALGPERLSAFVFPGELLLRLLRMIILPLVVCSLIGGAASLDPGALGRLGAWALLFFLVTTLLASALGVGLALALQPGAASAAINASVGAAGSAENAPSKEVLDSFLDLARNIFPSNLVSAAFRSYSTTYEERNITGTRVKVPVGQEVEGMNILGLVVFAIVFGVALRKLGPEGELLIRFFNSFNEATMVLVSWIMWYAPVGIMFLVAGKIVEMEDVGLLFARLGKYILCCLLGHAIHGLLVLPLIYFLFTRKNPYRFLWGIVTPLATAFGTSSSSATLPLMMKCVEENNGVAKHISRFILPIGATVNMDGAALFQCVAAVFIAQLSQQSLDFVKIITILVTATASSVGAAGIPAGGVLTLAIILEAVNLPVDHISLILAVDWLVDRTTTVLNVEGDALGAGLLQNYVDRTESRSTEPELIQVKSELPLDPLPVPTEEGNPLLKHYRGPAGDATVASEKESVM

Row | SMILES | GPNA % inhibition of L-serine activated current (ASCT1; ASCT1, GPNA co-applied with EC50 of L-serine, 300 µM GPNA / 1 mM GPNA (Table 1 footnote)) | Radiolabelled substrate uptake into oocytes (in words) [1] | EC50 (ASCT1; ASCT1 in oocytes, NO3−-containing buffer, current at +60 mV, dash = substrate did not generate currents)
1 | N[C@@H](CCC(=O)Nc1ccc([N+](=O)[O-])cc1)C(=O)O [GPNA, glutamyl-p-nitroanilide] | 26 ± 3% | – | –
2 | N[C@@H](CO)C(=O)O [L-serine] | – | displays uptake | 100 ± 20 µM
